In patent US20180147206A1, “ACTIVATION OF NEURONAL STORE-OPERATED CALCIUM ENTRY PATHWAY FOR THE TREATMENT OF ALZHEIMER'S DISEASE” (The Board of Regents of the University of Texas System, priority 2015, published 2018):

Legend:
[1] = Stability in CD-1 mouse plasma; type: in vitro ADME; details: commercial CD-1 mouse plasma; 2 μM
Protocol: FIGS. 12A-D. NSN21778 in vitro metabolism stability, in vivo plasma pharmacokinetics, and side effect on body weight (Related to FIGS. 7A-G). (FIG. 12A) The metabolic stability of NSN21778 was evaluated in vitro after incubation with commercial liver S9 fractions in the presence of phase I (NADPH regenerating system) cofactors. Compound levels were determined by LC-MS/MS. Additionally, the stability of NSN21778 in the presence of commercial CD-1 mouse plasma was measured. (FIG. 12B) NSN21778 was dosed i.p. at 10 mg/kg to female CD-1 mice. Levels of NSN21778 in plasma and brain were evaluated by LC-MS/MS. (FIG. 12C) WTGFP, PS1KIGFP and APPKIGFP mice body weight after i.p. administrated with control solution or 10 mg/kg NSN21778 for 10 weeks. Data presented as mean±SE (n=5 mice). (FIG. 12D) Body weight gained for various treatments.
In vitro metabolism assays. Female ICR/CD-1 mouse S9 fractions were purchased from Celsis/In Vitro Technologies (Baltimore, Md.). 25 μl (0.5 mg) of S9 protein was added to a 15 ml glass screw cap tube. […] The supernatant was analyzed by LC-MS/MS. Stability in commercial mouse CD-1 plasma (Bioreclamation, Westbury, N.Y.) was measured in a similar fashion. […] Reactions were quenched with methanol as above and supernatants evaluated by LC-MS/MS. Compound half-life was determined by the method of substrate depletion as described (McNaney et al., 2008).

[2] = test system: mushroom spines in hippocampal CA1 neurons; experiment: Dendritic spine analysis in hippocampal slice; type: cell-based, mouse; details: 6 month-old mice, 300 nM for 3.5 hours
Protocol: FIGS. 6A-E. NSN21778 rescues mushroom spine and synaptic plasticity defects in AD hippocampal slices. (FIG. 6A) Confocal images of CA1 hippocampal slices from 6 month-old WTGFP, PS1KIGFP, and APPKIGFP mice. The images are shown for untreated slices (CON) and for slices treated with 300 nM NSN21778 (+NSN) for 3.5 hrs prior to fixation. Scale bar is 10 μm. (FIG. 6B) The fraction of mushroom spines in hippocampal CA1 neurons from 6 month-old WTGFP, PS1KIGFP, and APPKIGFP mice. The results are shown for untreated slices (CON) and for slices treated with 300 nM NSN21778 (+NSN). The average fraction of mushroom spines for each group of cells is shown as mean±SE (n≥31 neurons). ***, p <0.001. (FIG. 6C) Sample fEPSP traces are shown for 6 month-old WT and APPKI hippocampal slices prior to stimulation (basal), immediately after tetanus stimulation (induction) and 1 h after tetanus stimulation (after 1 hr). The results are shown for untreated slices and for slices pre-treated with 300 nM NSN21778 (+NSN) for 2-3 hours prior to tetanus stimulation. (FIG. 6D) The normalized and averaged fEPSP slope is shown as a function of time in the experiments with 6 month-old wild-type and APPKI slices with (+NSN) or without 300 nM NSN21778 pre-treatment. […]
Dendritic Spine Analysis in Hippocampal slice. […] Approximately 25 neurons from 5 mice were analyzed for each genotype. […]

## CC(=O)Nc1ccc(CCNc2ncnc3ccc(N)cc23)cc1 [NSN21778, N-{4-[2-(6-Amino-quinazolin-4-ylamino)-ethyl]-phenyl}-acetamide]
[1]
  stability in plasma: stable
[2]; PS1KIGFP and APPKIGFP hippocampal slices
  mushroom spines: complete rescue
[2]; WTGFP slices
  mushroom spines: no effect
